# According to patent US11919869B2, “CD73 compounds” (Gilead Sciences, Inc., priority 2021, dated 2024):
# Where two headings read alike, the source gives them in different places.
# How the values were obtained:
# [1] = Thermodynamic solubility in FaSSIF and FeSSIF; type: physicochemical; settings: 20 hours, ambient temperature
# Description: Thermodynamic Solubility in FASSIF and FESSIF.
# The aqueous solubility of compounds over a time of 20 hours was assessed. Solubility was determined at ambient temperature in buffered fasted-state simulated intestinal fluid (FaSSIF, pH 6.5) and buffered fed-state simulated intestinal fluid (FeSSIF, pH 5.0) prepared in-house using BioRelevant Simulated Intestinal Fluid (SIF) powder. Solids were added to FaSSIF or FeSSIF in 1.5-mL Eppendorf tubes, vortexed for 1 minute, then agitated for 20 hours in an Eppendorf ThermoMixer C. To determine concentration in solution, the suspensions were centrifuged for 10 min at 14,800 rpm and supernatants were diluted to a volume of 1 mL with 1:1 v/v acetonitrile:water. All diluted supernatants were analyzed by UPLC using a Waters Acquity UPLC with a PDA UV detector.
# [2] = Kinetic solubility at pH 1 and 7; type: physicochemical; settings: 23 °C, kinetic from dmso stock, 1.0% DMSO
# Description: Kinetic Solubility at pH 1 and 7
# 100-fold dilutions of each compound as DMSO stock solution were prepared by combining 3 μL of DMSO stock with 297 μL of the appropriate media in a Millipore solubility filter plate with 0.45 μM polycarbonate filter membrane using Hamilton Starlet liquid handling. The final DMSO Concentration is 1.0% and maximum theoretical compound concentration is […] (assuming stock concentration of 10 mM). The filter plate was sealed. Following 24-hour incubation at ambient temperature (22.2-23.6° C.), the samples were vacuum filtered, and the filtrates were collected in a 96 well polypropylene plate for analysis. The collection plate was sealed for analysis. Filtrates were injected into the nitrogen detector for quantification. The equimolar nitrogen response of the detector is calibrated using standards which span the dynamic range of the instrument from 0.08 to 4500 μg/ml nitrogen. The filtrates were quantified with respect to this calibration curve. The calculated solubility values are corrected for background nitrogen present in the DMSO, and the media used to prepare the samples
# [3] = molecular target: T1, alkaline phosphatase (intestinal) (Bos taurus, UniProt P19111); experiment: Alkaline phosphatase stability assay; type: in vitro ADME; settings: 2 μM substrate, 100 ng/mL purified Bovine intestinal alkaline phosphatase, Tris buffer pH 7.8; read-out: ALP half life
# T1 construct: purchased MilliPore Sigma
# T1 sequence (P19111 20-506 limits assumed): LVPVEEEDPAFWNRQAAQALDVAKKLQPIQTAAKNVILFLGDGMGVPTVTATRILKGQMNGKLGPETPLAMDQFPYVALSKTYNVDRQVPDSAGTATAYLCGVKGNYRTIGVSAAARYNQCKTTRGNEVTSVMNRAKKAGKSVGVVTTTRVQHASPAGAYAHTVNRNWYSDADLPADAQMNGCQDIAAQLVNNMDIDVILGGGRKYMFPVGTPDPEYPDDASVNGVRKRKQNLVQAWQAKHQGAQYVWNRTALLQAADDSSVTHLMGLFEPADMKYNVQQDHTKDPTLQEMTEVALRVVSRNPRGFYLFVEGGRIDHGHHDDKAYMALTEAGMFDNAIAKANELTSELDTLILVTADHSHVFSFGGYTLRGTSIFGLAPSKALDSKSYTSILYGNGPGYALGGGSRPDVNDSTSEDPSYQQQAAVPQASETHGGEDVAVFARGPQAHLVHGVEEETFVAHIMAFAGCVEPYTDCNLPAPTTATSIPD
# Description: Alkaline Phosphatase Stability Assay
# (§1) Alkaline phosphatase stability assays were carried out using purified Bovine intestinal alkaline phosphatase. Duplicate sets were performed with a TECAN liquid handler. Assay substrate concentrations were 2 μM. Purified Bovine intestinal alkaline phosphatase was acquired through MilliPore Sigma as a lyophilized powder. Reaction mixtures were prepared by the addition of 2 μL compound (400 μM stock solution in DMSO) into wells of a 96-well plate containing […] Tris buffer (100 mM, pH 7.8, 1 mM MgCl2 and 1 mM ZnCl2) with and without 100 ng/mL purified Bovine intestinal alkaline phosphatase. Samples were assessed at time points of 3, 30, 60, 120, 180 and 240 minutes. At each time point, 25 μL of the reaction mixtures were added into a 96-well plate containing 225 μL of quench solution (99% Acetonitrile with 1% Formic Acid and 100 nM Labetalol as internal standard). The plates containing the quench samples were then vortexed at 1100 RPM for 10 minutes and centrifuged at 4500 RPM for 20 minutes. 150 μL of the resulting supernatant was transferred into a 96-well plate containing 150 μL of water and vortexed at 1100 RPM for 3 minutes to mix.
# (§2) Samples were analyzed with a Leap HTC Autosampler and a Dionex UltiMate 3000 HPLC system interfaced to a Thermo Q-Exactive mass spectrometer operating in positive ion electrospray mode. A Thermo Scientific Hypersil GOLD (1.9 μM particle size, 50×2.1 mm) HPLC column was used and mobile phase was pumped at 0.5 mL/min. Elution of analytes was achieved by a series of linear gradients of acetonitrile in water containing 0.1% (v/v) formic acid. Quantification was by analyte/internal standard peak area ratio (PAR).
# [4] = Assay buffer stability (Tris buffer without alkaline phosphatase); type: physicochemical; settings: 2 μM substrate, Tris buffer pH 7.8 without alkaline phosphatase
# Description: as §1, §2
# [5] = In vivo rat pharmacokinetics; settings: Wister Han rats, 100 mg-eq/kg
# Description: In Vivo Rat Pharmacokinetics Experiments
# In vivo Wister Han rat pharmacokinetic experiments of compound Comparator C and Example 4 were assessed as follows.
# Compound Comparator C was dosed as a 100 mg/kg suspension to Wister Han rats (N=3) using the following formulation:30% captisol, 5% soluplus, 65% pH 2 water. Compound 1170997 was dosed separately as a 100 mg-eq/kg (123 mg/kg) solution to Wister Han rats (N=3) using the following formulation: 0.5% Methocel E4M Premium, 0.1% Tween-80, 99.4% Water. Samples were assessed for the presence of Comparator C.
# Comparator C and Example 4. […] As is shown in Table 4, the AUC 0-24 h measured for Comparator C in plasma was higher after dosing with Example 4 than the value measured after dosing with an equivalent dose of Comparator C.
compound,measurement,setting,value
"O=c1[nH]c(=O)n(COP(=O)(O)O)cc1-c1cc([C@H]2C[C@@H]2c2ccc3cnn(CC(F)(F)F)c3c2)c2ncc(F)n2n1 [Example 4, (5-(3-fluoro-8-((1S,2S)-2-(1-(2,2,2-trifluoroethyl)-1H-indazol-6-yl)cyclopropyl)imidazo[1,2-b]pyridazin-6-yl)-2,4-dioxo-3,4-dihydropyrimidin-1(2H)-yl)methyl dihydrogen phosphate]",FaSSIF (pH 6.5),[1]; fasted-state simulated intestinal fluid pH 6.5,1100 ug/mL
same,FeSSIF (pH 5.0),[1]; fed-state simulated intestinal fluid pH 5.0,>5400 ug/mL
same,solubility kinetic at 24 h,"[2]; aqueous buffer, pH 7, 24-hour incubation at ambient temperature, read-out: Kinetic Solubility pH 7",> 100 µM
same,solubility kinetic at 24 h,"[2]; simulated gastric fluid, pH 1, 24-hour incubation at ambient temperature, read-out: Kinetic Solubility pH 1",96 µM
same,half-life at 2 µM,[3],4 min
same,half-life at 2 µM,[4],> 1580 min
same,"AUC 0-24 h measured for Comparator C in plasma, compared with dosing an equivalent dose of Comparator C",[5],higher
